Where no end group is shown, it is not given here.
What was measured:
[1] = tested on: P. aeruginosa PAO1 biofilm formation; assay: Biofilm formation assay, crystal violet staining; assay type: cell-based, Pseudomonas aeruginosa
Description: The effect of BmKn‒2 peptide and derivatives on biofilm formation of P. aeruginosa PAO1 was determined according to the method published previously with some modifications. Briefly, 100 μL of the test peptides was plated into the wells of flat-bottomed 96-well microtiter plates (Nunc™, Roskilde, Denmark) at the final concentrations of 200 ‒ 800 μM. Aliquots of the P. aeruginosa PAO1 suspension were then inoculated to the wells of 96-well microtiter plates to obtain a final concentration of 10^6 CFU/mL. Culture without the test peptides was used as the untreated control. After incubation at 37 ^OC for 24 h without agitation, planktonic cells were removed and the plates were gently rinsed twice with phosphate buffered saline (PBS) pH 7.4. Biofilms were then stained with 0.1% crystal violet solution (Merck, Darmstadt, Germany) for 10 minutes at room temperature. Excess stains were rinsed off with PBS pH 7.4 and the plates were left dry at 37 ^OC for 2 h. Subsequently, biofilm biomass was solubilized with 30% acetic acid and the optical density (OD) measured at 550 nm using a microplate reader (BioTek Synergy HT).

[2] = tested on: rhlI mRNA; assay: qRT-PCR of quorum sensing-related gene rhlI; assay type: cell-based, Pseudomonas aeruginosa; settings: 800 µM, 10 h
Description: The effects of BmKn‒22 peptide on the expression of quorum sensing‒related genes in P. aeruginosa PAO1 were assessed by qPCR. Briefly, bacterial suspension at approximately 10^7 CFU/mL was cultured in the presence or absence of the test peptide (800 μM, final concentration) at 37 ^OC for 10 h using a shaking incubator. After centrifugation at 4,500 rpm for 10 minutes, the bacterial cells were harvested and subsequently subjected to total RNA extraction using TRIzol® reagent (Invitrogen, USA) as per the manufacturer’s instruction. The concentration of the extracted RNA was measured using Nanodrop spectrophotometer (NanoDrop Technologies, USA). Thereafter, 1 μg of extracted RNA was reverse-transcribed into cDNA using Random Hexamer primer and RevertAid First Strand cDNA synthesis kit (Fermantas), which was amplified by real-time PCR. The primers for the genes lasI, lasR, RhlI, RhlR and 16S rRNA were used (Table 2). All primers were synthesized by the Integrated DNA Technology (IDT), Canada. The reaction mixture consisted of 1× AccuPower® 2X GreenStar™ qPCR Master Mix, 0.4 μmol/L each forward primer and reverse primer and 1 μL of cDNA in a final volume of 10 μL. Thermal cycles used was 95 ^OC for 2.5 min, followed by 40 cycles of 95 ^OC for 30 sec, 60 ^OC for 30 sec and 72 ^OC for 30 sec. The expression level of the target gene was normalized to 16S rRNA gene. Relative expression of the target genes was obtained from 2^‒ΔΔct.

[3] = tested on: sheep red blood cells; assay: Hemolytic assay; assay type: cell-based; settings: 800 µM, 37 °C, 1 h
Description: Hemolytic activity of the test peptides was assayed according to a protocol described previously. Suspension of 2% sheep red blood cells (100 μL) prepared in PBS pH 7.4 was incubated with 100 μL of the test peptides (800 μM, final concentration). After incubation at 37 ^OC for 1 h, the suspension was centrifuged at 1,000 g for 5 min followed by transferring 100 μL of the supernatant to 96 well-microtiter plate (Nunc). Released hemoglobin was then determined by measuring an absorbance at 405 nm using a microplate reader (BioTek Synergy HT). Positive and negative controls in this assay were 1% Triton X-100 and PBS pH 7.4, respectively. Hemolysis (%) was calculated using an equation: (OD405 nm peptide ‒ OD405 nm PBS pH 7.4)/(OD405 nm 1% Triton X-100 ‒ OD405 nm PBS pH 7.4) × 100.

[4] = tested on: L929 mouse fibroblast cells; assay: Cytotoxicity, MTT assay; assay type: cell-based; settings: 800 µM, 24 h; for Cell viability (%): L929 cells
Description: The toxicity of the test peptides against L929 mouse fibroblast cells was assessed by 3-(4,5-dimethylthiazol-2-yl)-2,5-diphenyltetrazolium bromide (MTT) assay. L929 mouse fibroblast cells from American Type Culture Collection (ATCC, Manassas, VA, USA) were cultured in Dulbecco's Modified Eagle Medium (DMEM; HyClone, Utah, USA) supplemented with 10% fetal bovine serum (Gibco, South America), 10 mM 4-(2-hydroxyethyl)-1 piperazineethanesulfonic acid (HEPES; HyClone, Utah, USA), 2 mM L-glutamine (Gibco, Brazil) and 100 U/mL penicillin and 100 μg/ml streptomycin (Gibco, USA) in a 5% CO2 atmosphere at 37°C. L929 cells (2×10^4 cells/well) were seeded in 96-well plates (Nunc) and incubated overnight. The culture medium was discarded and replaced by 100 μL of fresh DMEM containing the test compounds (final concentration 800 μM). Cells without the test compounds served as untreated control. After 24 h incubation, 20 μL of MTT solution (5 mg/mL; Sigma, St. Louis, MO, USA) was added and incubated for 3 h. The culture supernatant was removed and 100 μL dimethyl sulfoxide was added to each well to dissolve the formazan crystals. The absorbance was measured at 540 nm on a microplate reader (BioTek Synergy HT). Percentage of cell viability was calculated according to the equation: (OD of treated cells/ OD of untreated cells) × 100.

FIGAIARLLSK [BmKn-22]
Biofilm inhibition (%), biofilm formation ([1]; 200 µM, Exp. 1): 27.575%
Biofilm inhibition (%), biofilm formation ([1]; 200 µM, Exp. 2): 27.680%
Biofilm inhibition (%), biofilm formation ([1]; 200 µM, Exp. 3): 8.419%
Biofilm inhibition (%), biofilm formation ([1]; 400 µM, Exp. 1): 20.197%
Biofilm inhibition (%), biofilm formation ([1]; 400 µM, Exp. 2): 40.825%
Biofilm inhibition (%), biofilm formation ([1]; 400 µM, Exp. 3): 37.257%
reduction of P. aeruginosa biofilms ([1]; 800 µM, 24 h, compared with untreated control, result in words): marked reduction
Biofilm inhibition (%), biofilm formation ([1]; 800 µM, Exp. 1): 46.468%
Biofilm inhibition (%), biofilm formation ([1]; 800 µM, Exp. 2): 53.212%
Biofilm inhibition (%), biofilm formation ([1]; 800 µM, Exp. 3): 47.945%
Relative mRNA expression, rhlI ([2]; normalized to 16S rRNA, 2^-ΔΔct, untreated control = 1, mean of 2 independent experiments in quadruplicate): 1.127
Relative mRNA expression, rhlI ([2]; Exp. 1): 0.929
Relative mRNA expression, rhlI ([2]; Exp. 2): 1.325
mRNA expression of rhlI ([2]; result in words): no alteration
lysis of red blood cells [3]: less or no hemolysis
effect on viability of L929 cells ([4]; compared with untreated control, result in words): low effects on cell viability
Cell viability (%) ([4]; Exp. 1): 108.407%
Cell viability (%) ([4]; Exp. 2): 75.218%
Cell viability (%) ([4]; Exp. 3): 94.787%

Source: publication PMC6568410, “A scorpion venom peptide derivative BmKn‒22 with potent antibiofilm activity against Pseudomonas aeruginosa” (PLoS ONE, 2019)
